From patent publication US9951077B2, “Aminopyridazinone compounds as protein kinase inhibitors” (ETERNITY BIOSCIENCE INC., priority 2014, dated 2018)
pIC50: −log10 of the molar value.

Each molecule was assayed against Btk (Homo sapiens (Human), UniProt Q06187) (assay: Btk kinase assay (ADP-Glo)). Details: ATP 1.2 μM, 60 minutes, room temperature; read-out: BTK enzyme IC50.
Chain of Btk (Q06187 whole entry): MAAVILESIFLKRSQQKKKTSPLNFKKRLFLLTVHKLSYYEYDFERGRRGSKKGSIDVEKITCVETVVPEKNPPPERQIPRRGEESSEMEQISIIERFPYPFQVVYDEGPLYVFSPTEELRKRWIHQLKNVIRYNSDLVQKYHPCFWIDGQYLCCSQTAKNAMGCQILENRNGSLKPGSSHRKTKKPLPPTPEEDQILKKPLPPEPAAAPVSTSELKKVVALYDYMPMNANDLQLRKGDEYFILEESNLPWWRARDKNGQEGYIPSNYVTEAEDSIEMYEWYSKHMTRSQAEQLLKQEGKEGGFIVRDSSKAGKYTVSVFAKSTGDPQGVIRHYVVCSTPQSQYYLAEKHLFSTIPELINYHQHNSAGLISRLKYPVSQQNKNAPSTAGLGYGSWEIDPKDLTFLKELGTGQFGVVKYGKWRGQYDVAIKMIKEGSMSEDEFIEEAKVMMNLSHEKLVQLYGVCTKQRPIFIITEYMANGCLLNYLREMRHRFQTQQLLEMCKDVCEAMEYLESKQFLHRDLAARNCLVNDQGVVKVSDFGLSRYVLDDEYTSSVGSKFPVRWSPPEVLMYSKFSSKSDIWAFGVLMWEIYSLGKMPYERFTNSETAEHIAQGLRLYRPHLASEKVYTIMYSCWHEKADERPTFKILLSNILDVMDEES
Assay type: biochemical
Protocol: The Btk kinase assay was performed using a ADP-Glo Btk kinase assay kit purchased from Promega (Madison, Wis.). The assay was conducted according to the protocols provided in the assay kit. In brief, the enzyme reaction was carried out in the kinase reaction buffer containing Btk (2 ng/μl), ATP (1.2 μM), poly GT peptide (0.3 μM), DTT (40 nM), MnCl2 (1.4 mM), and 1×kinase buffer (included in the kit) in the presence or absence of the tested articles at various concentrations in 384-well plate at room temperature (22±1° C.) for 60 minutes. The final reaction volume for each reaction was 10 μl. Then, 4 μl of ADP-Glo reagent (included in the kit) was added into the reaction and the plate was further incubated for another 40 minutes to terminate the reaction and deplete the remaining ATP. Finally, 10 μl of the kinase detection reagent was added into each reaction to simultaneously convert ADP to ATP and allow the newly synthesized ATP to be measured by a plate-reading luminometer (Victor X5 2030 multilabel reader, PerkinElmer). IC50 value was calculated using appropriate programs in GraphPad Prism by plotting the logarithm of the concentration versus percent inhibition as compared with a vehicle (DMSO) control.
For COc1ccc(-c2cn(C3CCCN(C(=O)/C=C/CN(C)C)C3)c3c(=O)[nH]nc(N)c23)cc1 (stereo not shown) [Example 52, 4-amino-1-[1-[(E)-4-(dimethylamino)but-2-enoyl]-3-piperidyl]-3-(4-methoxyphenyl)-6H-pyrrolo[2,3-d]pyridazin-7-one], the pIC50 was no less than 8.00. CN(C)C/C=C/C(=O)N1CCC[C@@H](n2cc(-c3ccc(Oc4ccccc4)c(F)c3)c3c(N)n[nH]c(=O)c32)C1 [Example 75, 4-amino-1-[(3R)-1-[(E)-4-(dimethylamino)but-2-enoyl]-3-piperidyl]-3-(3-fluoro-4-phenoxy-phenyl)-6H-pyrrolo[2,3-d]pyridazin-7-one] gave a pIC50 of no less than 8.00. N#CN1CCC[C@@H](n2c(Cl)c(-c3ccc(Oc4ccccc4F)cc3)c3c(N)n[nH]c(=O)c32)C1 [Example 86, (R)-3-(4-amino-2-chloro-3-(4-(2-fluorophenoxy)phenyl)-7-oxo-6,7-dihydro-1H-pyrrolo[2,3-d]pyridazin-1-yl)piperidine-1-carbonitrile] showed a pIC50 of 4.00 to 6.00. In the case of CC#CC(=O)N1CC[C@@H](n2cc(-c3ccc(Oc4ccccc4Cl)cc3)c3c(N)n[nH]c(=O)c32)C1 [Example 96, (R)-4-amino-1-(1-(but-2-ynoyl)pyrrolidin-3-yl)-3-(4-(2-chlorophenoxy)phenyl)-1H-pyrrolo[2,3-d]pyridazin-7(6H)-one], the pIC50 was 6.00 to 8.00. Molecule CN(C)C/C=C/C(=O)N1C[C@H](n2cc(-c3ccc(Oc4ccccc4)cc3)c3c(N)n[nH]c(=O)c32)CC(F)(F)C1 [Example 49, 4-amino-1-[(3R)-1-[(E)-4-(dimethylamino)but-2-enoyl]-5,5-difluoro-3-piperidyl]-3-(4-phenoxyphenyl)-6H-pyrrolo[2,3-d]pyridazin-7-one] has a pIC50 of 6.00 to 8.00. C=CC(=O)Nc1cccc(-n2cc(-c3ccc(OC)c(Cl)c3)c3c(N)n[nH]c(=O)c32)c1 [Example 89, N-(3-(4-amino-3-(3-chloro-4-methoxyphenyl)-7-oxo-6,7-dihydro-1H-pyrrolo[2,3-d]pyridazin-1-yl)phenyl)acrylamide] showed a pIC50 of 6.00 to 8.00. CN(C)C/C=C/C(=O)N1CCC[C@@H](n2cc(-c3ccc(Oc4c(F)cccc4Cl)cc3)c3c(N)n[nH]c(=O)c32)C1 [Example 79, 4-amino-3-[4-(2-chloro-6-fluoro-phenoxy)phenyl]-1-[(3R)-1-[(E)-4-(dimethylamino)but-2-enoyl]-3-piperidyl]-6H-pyrrolo[2,3-d]pyridazin-7-one] gave a pIC50 of no less than 8.00. CN(C)C/C=C/C(=O)N1CCCC(n2cc(-c3ccc(Oc4cccc(Cl)c4)cc3)c3c(N)n[nH]c(=O)c32)C1 (stereo not shown) [Example 67, 4-amino-3-[4-(3-chlorophenoxy)phenyl]-1-[1-[(E)-4-(dimethylamino)but-2-enoyl]-3-piperidyl]-6H-pyrrolo[2,3-d]pyridazin-7-one] was tested, and the pIC50 was no less than 8.00. C=CC(=O)N1CCC[C@@H](n2cc(-c3ccc(Oc4ccccc4)c(F)c3)c3c(N)n[nH]c(=O)c32)C1 [Example 74, (R)-1-(1-acryloylpiperidin-3-yl)-4-amino-3-(3-fluoro-4-phenoxyphenyl)-1H-pyrrolo[2,3-d]pyridazin-7(6H)-one] was tested, and the pIC50 was 6.00 to 8.00. In the case of CC#CC(=O)N1C[C@H](OC)[C@@H](n2cc(-c3ccc(Oc4ccccc4F)cc3)c3c(N)n[nH]c(=O)c32)C1 [Example 98, 4-amino-1-((3S,4S)-1-(but-2-ynoyl)-4-methoxypyrrolidin-3-yl)-3-(4-(2-fluorophenoxy)phenyl)-1H-pyrrolo[2,3-d]pyridazin-7(6H)-one], the pIC50 was 6.00 to 8.00. Molecule CN(C/C=C/C(=O)N1CCC[C@@H](n2cc(-c3ccc(Oc4ccccc4)cc3)c3c(N)n[nH]c(=O)c32)C1)C1CCC1 [Example 31, 4-amino-1-[(3R)-1-[(E)-4-[cyclobutyl(methyl)amino]but-2-enoyl]-3-piperidyl]-3-(4-phenoxyphenyl)-6H-pyrrolo[2,3-d]pyridazin-7-one] has a pIC50 of no less than 8.00. CC#CC(=O)N1CC[C@H](n2cc(-c3ccc(Oc4ccccc4F)cc3)c3c(N)n[nH]c(=O)c32)C1 [Example 101, (S)-4-amino-1-(1-(but-2-ynoyl)pyrrolidin-3-yl)-3-(4-(2-fluorophenoxy)phenyl)-1H-pyrrolo[2,3-d]pyridazin-7(6H)-one] was tested, and the pIC50 was 4.00 to 6.00. For CN(C)C/C=C/C(=O)N1CCC[C@@H](n2cc(-c3ccc(Oc4ccccc4F)cc3)c3c(N)n[nH]c(=O)c32)C1 [Example 57, 4-amino-1-[(3R)-1-[(E)-4-(dimethylamino)but-2-enoyl]-3-piperidyl]-3-[4-(2-fluorophenoxy)phenyl]-6H-pyrrolo[2,3-d]pyridazin-7-one], the pIC50 was no less than 8.00. C=CC(=O)Nc1ccc(-n2cc(-c3ccc(Oc4ccccc4)cc3)c3c(N)n[nH]c(=O)c32)cc1 [Example 90, N-(4-(4-amino-7-oxo-3-(4-phenoxyphenyl)-6,7-dihydro-1H-pyrrolo[2,3-d]pyridazin-1-yl)phenyl)acrylamide] showed a pIC50 of 6.00 to 8.00. Work on C=CC(=O)N1CCC[C@@H](n2cc(-c3ccc(Oc4c(F)cccc4Cl)cc3)c3c(N)n[nH]c(=O)c32)C1 [Example 78, (R)-1-(1-acryloylpiperidin-3-yl)-4-amino-3-(4-(2-chloro-6-fluorophenoxy)phenyl)-1H-pyrrolo[2,3-d]pyridazin-7(6H)-one] yielded a pIC50 of no less than 8.00. C=CC(=O)N1CCC[C@@H]1Cn1cc(-c2ccc(Oc3ccccc3)cc2)c2c(N)n[nH]c(=O)c21 [Example 7, 4-amino-3-(4-phenoxyphenyl)-1-[[(2R)-1-prop-2-enoylpyrrolidin-2-yl]methyl]-6H-pyrrolo[2,3-d]pyridazin-7-one] showed a pIC50 of 4.00 to 6.00. Work on COc1cc(-c2cn(C3CCCN(C(=O)/C=C/CN(C)C)C3)c3c(=O)[nH]nc(N)c23)ccc1Oc1cccc(Cl)c1 (stereo not shown) [Example 69, 4-amino-3-[4-(3-chlorophenoxy)-3-methoxy-phenyl]-1-[1-[(E)-4-(dimethylamino)but-2-enoyl]-3-piperidyl]-6H-pyrrolo[2,3-d]pyridazin-7-one] yielded a pIC50 of no less than 8.00. CN(C/C=C/C(=O)N1CCC[C@@H](n2cc(-c3ccc(Oc4ccccc4)cc3)c3c(N)n[nH]c(=O)c32)C1)C1CC1 [Example 29, 4-amino-1-[(3R)-1-[(E)-4-(cyclopropyl(methyl)amino)but-2-enoyl]-3-piperidyl]-3-(4-phenoxyphenyl)-6H-pyrrolo[2,3-d]pyridazin-7-one] gave a pIC50 of 6.00 to 8.00. CC#CC(=O)N1CC[C@@H](n2cc(-c3ccc(Oc4ccccc4F)cc3)c3c(N)n[nH]c(=O)c32)C1 [Example 95, (R)-4-amino-1-(1-(but-2-ynoyl)pyrrolidin-3-yl)-3-(4-(2-fluorophenoxy)phenyl)-1H-pyrrolo[2,3-d]pyridazin-7(6H)-one] was tested, and the pIC50 was 6.00 to 8.00. C=CC(=O)NC1C2CCC1CC(n1cc(-c3ccc(Oc4ccccc4)cc3)c3c(N)n[nH]c(=O)c31)C2 (stereo not shown) [Example 15, N-(3-(4-amino-7-oxo-3-(4-phenoxyphenyl)-6,7-dihydro-1H-pyrrolo[2,3-d]pyridazin-1-yl)bicyclo[3.2.1]octan-8-yl)acrylamide] was tested, and the pIC50 was 6.00 to 8.00. Molecule CN(C)C/C=C/C(=O)N1CC(n2cc(-c3ccc(Oc4ccccc4)cc3)c3c(N)n[nH]c(=O)c32)C1 [Example 40, 4-amino-1-[1-[(E)-4-(dimethylamino)but-2-enoyl]azetidin-3-yl]-3-(4-phenoxyphenyl)-6H-pyrrolo[2,3-d]pyridazin-7-one] has a pIC50 of 6.00 to 8.00. With CC#CC(=O)N1CC[C@@H](n2cc(-c3ccc(Oc4c(F)cccc4Cl)cc3)c3c(N)n[nH]c(=O)c32)C1 [Example 94, (R)-4-amino-1-(1-(but-2-ynoyl)pyrrolidin-3-yl)-3-(4-(2-chloro-6-fluorophenoxy)phenyl)-1H-pyrrolo[2,3-d]pyridazin-7(6H)-one] the pIC50 was 6.00 to 8.00.
